From patent USRE37495E1, “Substituted 1-arylpyrazoles” (Bayer Aktiengesellschaft, priority 1993, dated 2002)

Experiments:
Type in all cases: in vivo
[1] = system: Phaedon cochleariae larvae; test: Critical concentration test/root-systemic action, Phaedon; conditions: 2.5 ppm active compound in soil, leaves infested after 7 days, evaluated after a further 2 days
Experimental: Critical Concentration Test/Root-Systemic Action.
Test insect: Phaedon cochleariae larvae
(§1) Solvent: 3 parts by weight of acetone
(§2) Emulsifier: 1 part by weight of alkylaryl polyglycol ether
(§3) To produce a suitable preparation of active compound, 1 part by weight of active compound is mixed with the stated amount of solvent, the stated amount of emulsifier is added and the concentrate is diluted with water to the desired concentration.
(§4) The preparation of active compound is intimately mixed with soil. The concentration of the active compound in the preparation is of practically no importance, only the amount by weight of active compound per unit volume of soil, which is given in ppm (=mg/l), being decisive. The treated soil is transferred into pots and these are planted with cabbage (Brassica oleracea). The active compound can in this way be taken up from the soil by the roots of the plants and be transferred into the leaves.
(§5) After a further 2 days, the evaluation is made by counting or estimating the dead animals. The root-systemic action of the active compound is deduced from the mortality figures. It is 100% if all test animals have been killed and 0% if just as many test insects are still alive as in the case of the untreated control.

[2] = system: Blattella germanica or Periplaneta americana; test: Cockroach test; conditions: after 6 hours, filter paper
Experimental: Test animals: Blattella germanica or Periplaneta americana
(§6) 35 parts by weight of ethylene glycol monomethyl ether
(§7) 35 parts by weight of nonylphenol polyglycol ether
(§8) To produce a suitable formulation, three parts by weight of active compound are mixed with seven parts of the abovementioned solvent/emulsifier mixture, and the emulsion concentrate thus obtained is diluted with water to the particular desired concentration.
2 ml of this preparation of active compound are pipetted onto filter paper discs (φ9.5 cm) located in Petri dishes of a suitable size. After the filter paper discs have dried, 5 test animals (Blattella germanica or Periplaneta americana) are introduced into the Petri dish, which is covered.
After 6 hours, the effectiveness of the preparation of active compound is determined. The effectiveness is expressed in %. 100% means that all cockroaches have been killed; 0% means that none of the cockroaches have been killed.

Lucilia cuprina larvae = test: Blowfly larvae test; conditions: after 24 hours
Experimental: Test animals: Lucilia cuprina larvae
35 parts by weight of ethylene glcyol monomethyl ether
as §7
To produce a suitable preparation of active compound, three parts by weight of active compound are mixed with seven parts by weight of the abovementioned mixture and the emulsion concentrate thus obtained is diluted with water to the particular desired concentration.
About 20 Lucilia cuprina res. larvae are introduced into a test tube which contains approx. 1 cm^3 of horse meat and 0.5 ml of the preparation of active compound. After 24 hours, the effectiveness of the preparation of active compound is determined. 100% means that all blowfly larvae have been killed; 0% means that none of the blowfly larvae have been killed.

[3] = system: peach aphid (Myzus persicae); test: Myzus test (leaf dip); conditions: concentration of active compound 0.1%, after one day, cabbage leaves dipped
Experimental: (§9) Solvent: 7 parts by weight of dimethylformamide
as §2
(§10) To produce a suitable preparation of active compound, 1 part by weight of active compound is mixed with the stated amount of solvent and the stated amount of emulsifier, and the concentrate is diluted with water to the desired concentration.
Cabbage leaves (Brassica oleracea) which are heavily infested with the peach aphid (Myzus persicae) are treated by being dipped into the preparation of active compound of the desired concentration.
(§11) After the specified period of time, the destruction in % is determined. 100% means that all the aphids have been killed; 0% means that none of the aphids have been killed.

[4] = system: black bean aphid (Aphis fabae); test: Aphis test (systemic action); conditions: concentration of active compound 0.02%, after four days, bean plants watered (systemic)
Experimental: Aphis Test (Systemic Action)
as §9, §2, §10
Bean plants (Vicia faba) which are heavily infested with the black bean aphid (Aphis fabae) are each watered with 20 ml of preparation of active compound of the desired concentration in such a way that the preparation of active compound penetrates into the soil without wetting the shoot. The active compound is taken up by the roots and passes to the shoot.
as §11

Myzus persicae = test: Critical concentration test/root-systemic action, Myzus; conditions: 20 ppm active compound in soil, leaves infested after 7 days, evaluated after a further 2 days
Experimental: Critical Concentration Test/Root-Systemic Action
Test insect: Myzus persicae
as §1, §2, §3, §4, §5

[5] = system: Musca domestica, strain WHO (N); test: Fly test; conditions: concentration of active compound 1 ppm, after 6 hours, filter paper
Experimental: Test animals: Musca domestica, strain WHO (N)
as §6, §7, §8
2 ml of this preparation of active compound are pipetted onto filter paper discs (φ9.5 cm) located in Petri dishes of a suitable size. After the filter paper discs have dried, 25 test animals are introduced into the Petri dish, which is covered.
After 6 hours, the effectiveness of the preparation of active compound is determined. The effectiveness is expressed in %. 100% means that all flies have been killed; 0% means that none of the flies have been killed.

[6] = system: All stages (eggs, larvae, pupae and adults) of Ctenocephalides felis; test: Flea in-vitro test (all development stages); conditions: active compound concentration 10% in blood meal
Experimental: Flea In-Vitro Test (All Development Stages)
Test subject: All stages (eggs, larvae, pupae and adults) of Ctenocephalides felis.
Blood meal is dried overnight in a shallow dish at approximately 70° C. and then screened using a mesh size of 0.63 mm.
1.8 g portions of this prepared blood meal are transferred into plastic Petri dishes of φ9.8 cm.
Using an Eppendorf pipette, 0.2 ml of substance are placed on the 1.8 g of blood meal (dilution factor 1:10).
That is to say, at a use concentration of 1 ppm, the aqueous solution must have a concentration of 10 ppm. The solution is distributed dropwise over the entire surface of-the blood meal.
These prepared dishes are allowed to dry overnight. Using a suitable device, the substance, which is now in the form of dried lumps of blood meal, is crushed and distributed uniformly in the Petri dish by rotating movements. A spatula-full of sieved flea eggs (which are obtained from artificially infected cats) is now added to these prepared test dishes. The dish is sealed with Parafilm and shaken vigorously.
Incubation is effected at 25° C. and the relative atmospheric humidity of 85%. At certain intervals, the dishes are examined for development stages of fleas.
Test criteria: The criteria used for the in-vitro activity of a substance is the inhibition of flea development or a standstill of the development before the adult stage is reached. […]

SMILES | degree of destruction [1] [%] | destruction ([2]; concentration of active compound >10 ppm) [%] | destructive activity (Lucilia cuprina larvae; concentration of active compound ≧300 ppm) [%] | degree of destruction [3] [%] | degree of destruction [4] [%] | degree of destruction (Myzus persicae) [%] | destructive activity (Lucilia cuprina larvae; concentration of active compound 1000 ppm) [%] | destruction [5] [%] | degree of destruction ([2]; concentration of active compound 10 ppm) [%] | destruction [6] [%]
Cc1nn(-c2c(Cl)cc(C(F)(F)F)cc2Cl)c(N)c1SC(C)(F)F [Example 1, 5-amino-3-methyl-4-(1,1-difluoroethylthio)-1-(2,6-dichloro-4-trifluoromethylphenyl)-pyrazole] | 100 | 100 | – | – | – | – | – | – | – | –
CC(F)(F)Sc1cnn(-c2c(Cl)cc(C(F)(F)F)cc2NN)c1N [Example 33, 5-amino-4-(1,1-difluoroethylthio)-1-(2-chloro-4-trifluoromethyl-6-hydrazinophenyl)-pyrazole] | 100 | – | 100 | – | – | – | – | – | – | –
N#Cc1nn(-c2c(Cl)cc(C(F)(F)F)cc2Cl)c(N)c1[S+]([O-])C(F)(F)F (stereo not drawn) [prior art] | 0 | – | – | 0 | 0 | 0 | 100 | < 100 | < 100 | 0
